Reference: ChEMBL document CHEMBL4428076 (J Med Chem, 2016)
Calls of active or inactive are those of the source. The rule behind the calls is not given here.

Experiments:
[1] = Toxicity in CD-1 mouse assessed as time for drug tolerance at 1.5 mg/kg, sc bid at dosing intervals of 12 hrs; type: organism-based; conditions: in vivo
Mus musculus [2] = assay: Antinociceptive activity in CD-1 mouse assessed as increase in reaction time at 1.5 mg/kg, sc measured 15 mins post dose in presence of kappa opioid receptor antagonist norBNI by radiant heat tail flick assay; type: functional, organism-based
Mus musculus [3] = assay: Antinociceptive activity in C57BL/6 mouse assessed as increase in reaction time at 0.1 to 10 mg/kg, sc measured 15 mins post dose by radiant heat tail flick assay; type: functional, organism-based
[4] = Toxicity in C57BL/6 mouse assessed as conditioned place aversion at 1.3 to 3.2 mg/kg/day, ip measured for 30 mins post dose; type: organism-based; conditions: in vivo, 0.5 h
[5] = molecular target: Mu-type opioid receptor (Mus musculus) (UniProt P42866); assay: Agonist activity at mouse mu opioid receptor-1 expressed in CHO cell membranes assessed as [35S]GTPgammaS binding incubated for 60 mins by scintillation spectroscopic analysis relative to DAMGO; type: functional
Chain of Mu-type opioid receptor (Mus musculus) (P42866 whole entry): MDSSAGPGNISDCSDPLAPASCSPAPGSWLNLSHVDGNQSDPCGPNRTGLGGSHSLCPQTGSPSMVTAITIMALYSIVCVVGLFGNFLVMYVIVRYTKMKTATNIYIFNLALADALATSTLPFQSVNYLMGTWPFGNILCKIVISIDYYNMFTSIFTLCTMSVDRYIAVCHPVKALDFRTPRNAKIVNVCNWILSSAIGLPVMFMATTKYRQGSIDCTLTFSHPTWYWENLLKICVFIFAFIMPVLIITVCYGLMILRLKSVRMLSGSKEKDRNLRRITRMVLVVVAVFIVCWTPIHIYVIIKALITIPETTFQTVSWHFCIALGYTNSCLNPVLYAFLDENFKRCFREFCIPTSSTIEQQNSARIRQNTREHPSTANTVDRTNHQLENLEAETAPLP

[6] = molecular target: T1, Alpha-2C adrenergic receptor (Homo sapiens) (UniProt P18825); assay: Displacement of [3H]rauwolscine from recombinant human adrenergic alpha2C receptor expressed in MDCK cell membrane after 90 mins by microbeta scintillation counting method
T1 sequence (whole entry): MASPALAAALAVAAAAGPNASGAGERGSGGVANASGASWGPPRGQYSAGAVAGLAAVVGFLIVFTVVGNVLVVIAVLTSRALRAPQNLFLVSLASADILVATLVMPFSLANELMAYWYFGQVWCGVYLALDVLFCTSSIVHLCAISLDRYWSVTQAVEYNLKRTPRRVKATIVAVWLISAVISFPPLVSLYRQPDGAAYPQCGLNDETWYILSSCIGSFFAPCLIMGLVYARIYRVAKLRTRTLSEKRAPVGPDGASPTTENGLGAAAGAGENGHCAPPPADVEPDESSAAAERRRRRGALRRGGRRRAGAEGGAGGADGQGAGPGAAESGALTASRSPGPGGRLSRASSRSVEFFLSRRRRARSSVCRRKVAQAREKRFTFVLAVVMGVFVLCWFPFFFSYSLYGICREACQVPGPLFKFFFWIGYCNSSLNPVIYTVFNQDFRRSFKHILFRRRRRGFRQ

Mus musculus [7] = assay: Antinociceptive activity in sc dosed CD-1 mouse assessed as increase in reaction time measured 15 mins post dose by radiant heat tail flick assay; type: functional; conditions: CD-1, sc, 0.25 h
Mus musculus [8] = assay: Antinociceptive activity in CD-1 mouse assessed as increase in reaction time at 1.5 mg/kg, sc measured 15 mins post dose in presence of delta opioid receptor antagonist NTI by radiant heat tail flick assay; type: functional, organism-based
Mus musculus [9] = assay: Antinociceptive activity in sc dosed C57BL/6 mouse assessed as increase in reaction time by radiant heat tail flick assay; type: functional; conditions: C57BL/6, sc
[10] = Toxicity in C57BL/6 mouse assessed as conditioned place preference at 1.3 to 3.2 mg/kg/day, ip measured for 30 mins post dose; type: organism-based; conditions: in vivo, 0.5 h
Mus musculus [11] = assay: Antinociceptive activity in po dosed CD-1 mouse assessed as increase in reaction time administered through gavage measured 15 mins post dose by radiant heat tail flick assay; type: functional; conditions: CD-1, po, 0.25 h
Mus musculus [12] = assay: Antinociceptive activity in MOR-1 6TM/E11 splice variant knock out sc dosed C57BL/6 mouse assessed as increase in reaction time by radiant heat tail flick assay; type: functional; conditions: C57BL/6, sc
Mus musculus [13] = assay: Antinociceptive activity in sc dosed CD-1 mouse assessed as increase in reaction time administered twice daily at dosing intervals of 12 hrs for 5 days by radiant heat tail flick assay; type: functional; conditions: CD-1, sc
Mus musculus [14] = assay: Ratio of ED50 for sc dosed CD-1 mouse administered twice daily at dosing intervals of 12 hrs for 29 days to ED50 for sc dosed CD-1 mouse measured 15 mins post dose; type: functional
Mus musculus [15] = assay: Antinociceptive activity in 129Sv6 mouse assessed as increase in reaction time at 0.1 to 10 mg/kg, sc measured 15 mins post dose by radiant heat tail flick assay; type: functional, organism-based
Mus musculus [16] = assay: Antinociceptive activity in CD-1 mouse assessed as increase in reaction time at 1.5 mg/kg, sc measured 15 mins post dose in presence of mu opioid receptor antagonist beta-FNA by radiant heat tail flick assay; type: functional, organism-based
[17] = Toxicity in CD-1 mouse assessed as physical dependence by measuring number of jumps at 1.5 mg/kg, sc bid for 5 days followed by opioid antagonist naloxone injection on day 5 measured for 15 mins post last dose; type: organism-based; conditions: in vivo, 0.25 h
[18] = molecular target: Kappa-type opioid receptor (Mus musculus, UniProt P33534); assay: Antagonist activity at mouse kappa opioid receptor-1 expressed in CHO cell membranes assessed as inhibition of U50,488H-induced [35S]GTPgammaS binding incubated for 60 mins by scintillation spectroscopic analysis; type: functional
Chain of Kappa-type opioid receptor (P33534 whole entry): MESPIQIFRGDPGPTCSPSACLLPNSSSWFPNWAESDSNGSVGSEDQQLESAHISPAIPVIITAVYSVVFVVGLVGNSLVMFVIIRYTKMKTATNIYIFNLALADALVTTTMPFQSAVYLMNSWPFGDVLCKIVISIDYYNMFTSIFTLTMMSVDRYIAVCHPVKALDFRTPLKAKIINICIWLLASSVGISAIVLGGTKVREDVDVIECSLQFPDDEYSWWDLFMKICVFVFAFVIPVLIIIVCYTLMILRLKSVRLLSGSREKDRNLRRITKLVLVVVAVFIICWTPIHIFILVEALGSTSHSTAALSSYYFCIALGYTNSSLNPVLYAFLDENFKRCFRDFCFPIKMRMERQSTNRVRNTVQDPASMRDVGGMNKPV

## CC[C@@H]1CN2CC[C@]3(Nc4cccc(OC)c4C3=O)[C@@H]2C[C@@H]1/C(=C\OC)C(=O)OC
[1]
  Time: 29 days
Mus musculus [2]
  Activity: Active
Mus musculus [3]
  Activity: Active
[4]
  Activity: Non-Toxic
[5]
  Emax: 84%
[6]
  inhibition: Active
Mus musculus [7]
  ED50: 0.76 mg/kg
Mus musculus [8]
  Activity: Active
Mus musculus [9]
  ED50: 0.83 mg/kg
[10]
  Activity: Non-Toxic
Mus musculus [11]
  ED50: 7.5 mg/kg
Mus musculus [12]
  ED50: 1.4 mg/kg
Mus musculus [13]
  ED50: 1.1 mg/kg
Mus musculus [14]
  Ratio ED50: 6
Mus musculus [15]
  Activity: Active
Mus musculus [16]
  Activity: inactive
[17]
  Activity: 12
[18]
  IC50: 31 nM
